Reference: patent US20250152559A1, “METHODS FOR TREATING MYC-AMPLIFIED CANCER” (The Governing Council of the University of Toronto, priority 2023, published 2025)

Tested on: HD-MB03 PDOX
Assay: Orthotopic PDOX model, IVIS bioluminescence and survival
Type: in vivo, mice
Conditions: HD-MB03, regimens R1 and R2 vs vehicle
Description: The treatment-naïve, patient-derived cell line, HD-MB03, was orthotopically engrafted into immunocompromised mice. Four days later, tumors were readily detectible via bioluminescence imaging. Thereafter mice were randomized into three cohorts, which were treated with either the vehicle or one of two BAY treatment regimens (R1 and R2; FIG. 5B).
PDOX were generated by engrafting 25,000 tumor cells (both SU_MB002 and HD-MB03 cell lines), suspended in 5 μL PBS, directly into the mouse cerebrum. Flank xenografts were generated by engrafting 2,000,000 tumor cells suspended in a 100 μL solution of PBS/Matrigel® (1:1 v/v). For preclinical studies, cells were engineered to express enhanced firefly luciferase. […] Flank tumors were isolated at matched time points and formalin fixed for 48 hours, paraffin embedded (FFPE) and sectioned for follow-up analysis. Tumor area was manually measured in H&E-stained sections of FFPE tissues using ImageJ.
For imaging via the in vivo imaging system (IVIS), mice were sedated with isoflurane gas and then administered luciferin substrate (150 mg/kg in PBS) via subcutaneous injection. After 10 minutes, bioluminescent signal (photons per second; p/s) was quantified using Living Image software.

CCn1c(CO)nn(-c2cc(O[C@@H](C)C(F)(F)F)c(C(=O)Nc3c(F)cccc3Cl)cc2F)c1=O [BAY2402234]
overall survival: prolonged overall survival
PDOX growth (IVIS bioluminescence) (oral gavage): significantly attenuated
